From ChEMBL document CHEMBL4043207, “Discovery of a novel, CNS penetrant M4 PAM chemotype based on a 6-fluoro-4-(piperidin-1-yl)quinoline-3-carbonitrile core” (Bioorg Med Chem Lett, 2017)

Legend:
[1] = biological target: T1, Muscarinic acetylcholine receptor M4 (Homo sapiens) (UniProt P08173); experiment: Positive allosteric modulation of human M4 receptor expressed in CHO cells co-expressing Gqi5 assessed as increase in acetylcholine-induced calcium mobilization relative to acetylcholine; assay type: functional, cell-based
T1 sequence (whole entry): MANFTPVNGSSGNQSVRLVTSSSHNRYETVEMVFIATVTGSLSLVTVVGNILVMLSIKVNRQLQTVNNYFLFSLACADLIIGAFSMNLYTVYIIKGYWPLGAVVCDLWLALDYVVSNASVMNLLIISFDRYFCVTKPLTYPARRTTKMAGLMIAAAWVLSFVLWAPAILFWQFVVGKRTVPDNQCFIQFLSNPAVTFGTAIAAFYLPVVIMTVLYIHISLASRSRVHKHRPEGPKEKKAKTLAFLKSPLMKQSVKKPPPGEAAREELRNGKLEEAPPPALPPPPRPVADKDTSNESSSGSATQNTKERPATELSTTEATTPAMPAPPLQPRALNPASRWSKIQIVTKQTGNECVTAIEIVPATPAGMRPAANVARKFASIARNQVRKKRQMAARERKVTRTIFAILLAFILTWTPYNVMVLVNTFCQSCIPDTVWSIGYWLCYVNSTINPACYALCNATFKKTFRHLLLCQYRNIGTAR

[2] = Ratio of unbound concentration in brain to plasma in Sprague-Dawley rat at 0.1 to 0.2 mg/kg, iv administered as cassette dose after 25 mins; assay type: ADME, organism-based; details: brain and plasma, read-out: K(p,uu,brain)
[3] = biological target: T2, Muscarinic acetylcholine receptor M4 (Homo sapiens, UniProt P08173); experiment: Positive allosteric modulation of human M4 receptor expressed in CHO cells co-expressing Gqi5 assessed as increase in acetylcholine-induced calcium mobilization; assay type: functional, cell-based
T2 sequence (P08173 whole entry): T1 sequence (whole entry)

[4] = Brain to plasma permeability coefficient, Kp of the compound in Sprague-Dawley rat at 0.1 to 0.2 mg/kg, iv administered as cassette dose after 25 mins; assay type: ADME, organism-based; details: brain and plasma
[5] = Clearance in rat hepatocytes; assay type: ADME, cell-based, Hepatocyte
MDR1 (P-gp) = experiment: Efflux ratio of apparent permeability in MDCK-MDR1 cells; assay type: ADME, cell-based, Canis lupus familiaris; details: dog
[6] = Fraction unbound in rat plasma; assay type: ADME, cell-free
[7] = Clearance in human hepatocytes; assay type: ADME, cell-based, Hepatocyte
[8] = (§1) Fraction unbound in human plasma; assay type: ADME, cell-free
[9] = Fraction unbound in rat brain; assay type: ADME, tissue-based
Plasma [10] = experiment: as §1; assay type: ADME, cell-free
[11] = biological target: T3, Muscarinic acetylcholine receptor M4 (Rattus norvegicus, UniProt P08485); experiment: Positive allosteric modulation of rat M4 receptor assessed as increase in acetylcholine-induced response
T3 sequence (P08485 whole entry): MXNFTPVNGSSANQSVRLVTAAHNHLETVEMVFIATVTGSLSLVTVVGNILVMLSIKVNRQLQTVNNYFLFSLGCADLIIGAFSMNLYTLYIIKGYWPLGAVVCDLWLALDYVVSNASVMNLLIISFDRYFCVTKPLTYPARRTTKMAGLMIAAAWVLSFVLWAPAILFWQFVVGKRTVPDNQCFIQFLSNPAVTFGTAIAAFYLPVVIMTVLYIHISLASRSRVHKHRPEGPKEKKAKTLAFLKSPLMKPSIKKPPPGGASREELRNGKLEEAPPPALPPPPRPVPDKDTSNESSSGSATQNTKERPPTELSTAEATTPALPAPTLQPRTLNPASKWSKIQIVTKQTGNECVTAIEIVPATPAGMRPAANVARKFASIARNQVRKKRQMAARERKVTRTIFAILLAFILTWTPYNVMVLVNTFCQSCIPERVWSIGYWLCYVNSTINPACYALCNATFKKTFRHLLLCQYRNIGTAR

[12] = biological target: T4, Muscarinic acetylcholine receptor M4 (Rattus norvegicus) (UniProt P08485); experiment: Positive allosteric modulation of rat M4 receptor assessed as increase in acetylcholine-induced response relative to acetylcholine
T4 sequence (whole entry): T3 sequence (P08485 whole entry)

Plasma [13] = experiment: Fraction unbound in dog plasma at 0.2 mg/kg administered as iv casette dose; assay type: ADME, organism-based, Canis lupus familiaris; details: in vivo
[14] = Volume of distribution at steady state in rat plasma at 0.2 mg/kg administered as iv cassette dose; assay type: ADME, organism-based; details: read-out: Vdss
[15] = Clearance in rat plasma at 0.2 mg/kg administered as iv cassette dose; assay type: ADME, organism-based
[16] = Volume of distribution at steady state in dog plasma at 0.2 mg/kg administered as iv cassette dose; assay type: ADME, organism-based, Canis lupus familiaris; details: read-out: Vdss
[17] = Clearance in dog plasma at 0.2 mg/kg administered as iv cassette dose; assay type: ADME, organism-based, Canis lupus familiaris
[18] = Half life in rat plasma at 0.2 mg/kg administered as iv cassette dose; assay type: ADME, organism-based
[19] = Half life in dog plasma at 0.2 mg/kg administered as iv cassette dose; assay type: ADME, organism-based, Canis lupus familiaris
[20] = Apparent permeability in MDCK-MDR1 cells; assay type: ADME, cell-based, Canis lupus familiaris; details: dog
[21] = Brain to plasma permeability coefficient, Kp of the compound in rat; assay type: ADME
[22] = Ratio of unbound concentration in brain to plasma in rat; assay type: ADME

Structure (SMILES) | Emax [1] [%] | EC50 ([3]; read-out: EC50) [nM] | EC50 ([3]; read-out: pEC50 (converted)) [nM] | other results
N#Cc1cnc2ccc(F)cc2c1N1CCC(C(=O)Nc2ccc(S(N)(=O)=O)cc2)CC1 | 63 | 248 | 229 | Kp uu at 25 min [2]: 0.1; Kp at 25 min [4]: 0.16; CLhep predicted [5]: 34 mL/min/kg; efflux ratio (MDR1 (P-gp)): 83; fraction unbound [6]: 0.016; CLhep predicted [7]: 13 mL/min/kg; fraction unbound [8]: 0.064; fraction unbound [9]: 0.01
N#Cc1cnc2ccc(F)cc2c1N1CCC(C(=O)Nc2ccncn2)CC1 | 59 | 940 |  | 
N#Cc1cnc2ccc(F)cc2c1N1CCC(Oc2ccc(F)nc2)CC1 | 83 | 512 | 490 | 
N#Cc1cnc2ccc(F)cc2c1N1CCC(C(=O)N2CCSCC2)CC1 | 88 | 1410 |  | 
Cc1ccc(OC2CCN(c3ccnc4ccc(F)cc34)CC2)cn1 | 62 | 2210 | 2140 | 
Cc1ccc(OC2CCN(c3c(C#N)cnc4ccc(Cl)cc34)CC2)cn1 | 72 | 905 |  | 
N#Cc1cnc2ccc(F)cc2c1N1CCC(C(=O)N2CCc3ccccc3C2)CC1 | 81 | 652 |  | 
N#Cc1ccc(OC2CCN(c3c(C#N)cnc4ccc(F)cc34)CC2)cn1 | 49 | > 10000 |  | 
COc1ccc(CNC(=O)C2CCN(c3c(C#N)cnc4ccc(F)cc34)CC2)cc1 | 60 | 664 | 617 | 
Cc1cc(C)c(OC2CCN(c3c(C#N)cnc4ccc(F)cc34)CC2)cn1 |  | > 10000 | > 31600 | 
Cc1ccc(OC2CCN(c3ncnc4ccc(F)cc34)CC2)cn1 |  |  |  | Kp uu at 25 min [2]: 0.74; Kp at 25 min [4]: 1.16; CLhep predicted [5]: 67 mL/min/kg; fraction unbound [6]: 0.011; CLhep predicted [7]: 20 mL/min/kg; Fu (Plasma [10]): 0.013; fraction unbound [9]: 0.007
COc1ccccc1CNC(=O)C1CCN(c2c(C#N)cnc3ccc(F)cc23)CC1 | 48 | 651 | 589 | 
Cc1ccc(OC2CCN(c3c(C#N)cnc4c(C)cc(F)cc34)CC2)cn1 | 82 | 2070 |  | 
N#Cc1cnc2ccc(F)cc2c1N1CCC(C(=O)NCc2ccccc2)CC1 | 68 to 78 |  | 1230 | CLhep predicted [5]: 61 mL/min/kg; fraction unbound [6]: 0.028; EC50 [11]: 2560 nM; Emax [12]: 49%; CLhep predicted [7]: 17 mL/min/kg; fraction unbound [8]: 0.031
Cc1ccc(OC2CCN(c3c(C#N)cnc4c(F)cc(F)cc34)CC2)cn1 | 93 | 223 | 209 | 
N#Cc1cnc2ccc(F)cc2c1N1CCC(C(=O)Nc2cccnc2)CC1 | 68 | 619 |  | 

Structure (SMILES) | Emax [1] [%] | EC50 ([3]; read-out: EC50) [nM] | EC50 ([3]; read-out: pEC50 (converted)) [nM] | other results
Cc1ccc(OC2CCN(c3c(C#N)cnc4ccc(F)cc34)CC2)c(F)n1 | 53 | 5640 | 5370 | 
N#Cc1cnc2ccc(F)cc2c1N1CCC(Oc2cccnc2)CC1 | 80 | 1300 |  | 
N#Cc1cnc2ccc(F)cc2c1N1CCC(C(=O)Nc2ccncc2)CC1 | 73 | 147 |  | 
Cn1nccc1NC(=O)C1CCN(c2c(C#N)cnc3ccc(F)cc23)CC1 | 81 | 1760 | 1660 | 
N#Cc1cnc2ccc(F)cc2c1N1CCC(C(=O)Nc2ccc(F)c(F)c2)CC1 | 52 | 565 |  | 
Cc1ccc(OC2CCN(c3c(C#N)cnc4ccc(F)cc34)CC2)cn1 | 79 | 197 |  | Fu (Plasma [13]): 0.045; Kp uu at 25 min [2]: 2.37 to 2.4; Vd [14]: 3.2 L/kg; clearance [15]: 36 mL/min/kg; Kp at 25 min [4]: 5.25 to 5.3; CLhep predicted [5]: 52 mL/min/kg; efflux ratio (MDR1 (P-gp)): 1.1; fraction unbound [6]: 0.031; EC50 [11]: 437 nM; Emax [12]: 74%; Vd [16]: 4 L/kg; clearance [17]: 41 mL/min/kg; half-life [18]: 1.7 h; half-life [19]: 1.6 h; CLhep predicted [7]: 15 mL/min/kg; Papp [20]: 28 ×10⁻⁶ cm/s; fraction unbound [8]: 0.024; fraction unbound [9]: 0.014
N#Cc1cnc2ccc(F)cc2c1N1CCC(Oc2ccc(Cl)nc2)CC1 | 80 | 577 | 562 | 
N#Cc1cnc2ccc(F)cc2c1N1CCC(C(=O)Nc2ccccn2)CC1 | 44 | 912 | 871 | 
COc1ccc2c(c1)CCN(C(=O)C1CCN(c3c(C#N)cnc4ccc(F)cc34)CC1)C2 | 76 | 648 |  | Kp uu at 25 min [2]: 0.68; Kp at 25 min [4]: 1.26; CLhep predicted [5]: 64 mL/min/kg; fraction unbound [6]: 0.013; CLhep predicted [7]: 20 mL/min/kg; fraction unbound [8]: 0.011; fraction unbound [9]: 0.007
N#Cc1cnc2ccc(F)cc2c1N1CCC(C(=O)N2CCOCC2)CC1 | 78 | 6440 |  | 
N#Cc1cnc2ccc(F)cc2c1N1CCC(Oc2ccccc2)CC1 | 81 | 3260 |  | 
COc1ccc(CNC(=O)C2CCN(c3c(C#N)cnc4ccc(F)cc34)CC2)cc1F | 65 | 1090 | 1050 | CLhep predicted [5]: 61 mL/min/kg; Kp [21]: 0.29; CLhep predicted [7]: 19 mL/min/kg; K(p,uu,brain) [22]: 0.26
Cc1ccc(OC2CCN(c3c(C#N)cnc4ccc(F)cc34)CC2)c(C)n1 |  | > 10000 | > 31600 | 
Cc1ccc2ncc(C#N)c(N3CCC(Oc4ccc(C)nc4)CC3)c2c1 | 67 | 3020 | 2950 | 
Cc1ccc(OC2CCN(c3c(C#N)cnc4cc(F)c(F)cc34)CC2)cn1 | 92 | 571 | 562 | 
